Source: patent publication US20240239806A1, “COMPOUNDS, COMPOSITIONS AND METHODS OF TREATING DISORDERS” (Chengdu Anticancer Bioscience, Ltd., priority 2021, published 2024)
Where two headings read alike, the source gives them in different places.

Experiments:
Type in all cases: cell-based
MDA-MB-231 [1] = assay: MTT assay of cellular proliferation; details: Homo sapiens; MDA-MB-231, MTT, 50% inhibition of cellular proliferation
Protocol: (§1) Six lung cancer cell lines (NCI-H23, NCI-H460, NCI-H596, NCI-H2170, Calu-6 and A549), two colon cancer cell lines (HCT116 and SW460), one breast cancer cell line MDA-MB-231, one gastric cancer cell line NCI-N87, one prostate cancer cell line DU145, one cervical cancer cell line Hela, and one glioblastoma cell line T98G were obtained from ATCC. The T2 HCC cell line was derived from a mouse liver cancer model initiated by a transgene of MYC. All cell lines were cultured in DMEM (Gibco, Cleveland, TN, USA) supplemented with 5% fetal bovine serum (Gibco), penicillin (100 U/mL)—streptomycin (100 μg/mL) (Gibco, Cat. No. 15140-122), 2 mM L-glutamine (Gibco, 200 mM solution, Cat. No. 25030081), and 1 mM sodium pyruvate (Gibco, 100 mM solution, Cat. No. 11360070) at 37° C. in a humidified incubator that was maintained at 5% CO2.
(§2) The MTT assay measures cellular metabolic activity as a proxy for cell viability and involves the conversion of the water-soluble yellow dye MTT [3-(4,5-dimethylthiazol-2-yl)-2,5-diphenyltetrazolium bromide] into an insoluble purple formazan by the action of mitochondrial reductase. Formazan is then solubilized and its concentration is determined by measuring the optical density (OD) value at a wavelength of 570 nm. The value is in proportional to the number of live cells with excellent linearity up to ˜10^6 cells per well. The MTT assay was used to determine the EC50 value, the concentration of a compound that leads to 50% inhibition of cellular proliferation. Briefly, cells were split when growing to the mid-Log phase. Cells in 100 μL of culture medium were seeded into each well of 96-well microplates and cultivated for 15-24 hours to reach a confluence of 20-30% and were then exposed to drugs at concentrations ranging from 1 nM to 30 μM. At the endpoint, 20 μL of a MTT stock solution in DMSO (5 mg/mL) was added to each well that contains 100 μL of DMEM. The microplates were left in the cell culture incubator for 3-4 h before subjected to solubilization and determination of formazan at A570 in a microplate reader (BioTek ELX808iu). […] Therefore, these compounds might hold a broad utility in the treatment of a large variety of human malignancies.

T2 HCC [2] = assay: MTT assay of cellular proliferation; details: Mus musculus, 50% inhibition of cellular proliferation
Protocol: as §1, §2

SW480 [3] = assay: MTT assay of cellular proliferation; details: Homo sapiens, 50% inhibition of cellular proliferation
Protocol: as §1, §2

NCI-H23 [4] = assay: MTT assay of cellular proliferation; details: Homo sapiens, 50% inhibition of cellular proliferation
Protocol: as §1, §2

NCI-N87 [5] = assay: MTT assay of cellular proliferation; details: Homo sapiens, 50% inhibition of cellular proliferation
Protocol: as §1, §2

A549 [6] = assay: MTT assay of cellular proliferation; details: Homo sapiens, 50% inhibition of cellular proliferation
Protocol: as §1, §2

HCT116 [7] = assay: MTT assay of cellular proliferation; details: Homo sapiens, HCT-116, 50% inhibition of cellular proliferation
Protocol: as §1, §2

Hela [8] = assay: MTT assay of cellular proliferation; details: Homo sapiens, 50% inhibition of cellular proliferation
Protocol: as §1, §2

MDA-MB-231 [9] = assay: MECP in cancer cell line; details: Homo sapiens
Protocol: as §1
(§3) We have previously developed a mechanism-informed phenotypic screening assay to identify novel antimitotic agents. Equipped with a prior understanding of the versatile functions of the chromosomal passenger protein (CPP) complex in orchestrating karyokinesis and cytokinesis, the screening assay is to score for phenotypes typically seen when the CPP complex is disabled. Specifically, the parameters for a positive hit are a temporary elevation of mitotic index (MI) at 24 hours of drug treatment and an accumulation of polyploid cells at 48 hours of drug treatment, indicative of mitotic arrest and cytokinetic failure respectively. These parameters exclude compounds that elicit only a prolonged arrest of cells in mitosis, a phenotype typically provoked by spindle toxins. The screening procedure is briefly summarized here. RPEMYC^H2B-GFP cells engineered to express a Histone 2B-EGFP fusion protein were passaged as batches of 96-well plates, 18-24 hours before exposure to the chemical compounds of the present disclosure at concentrations from 1 nM to 30 μM. At 24, 48 or 72 hours after initiation of treatment, cells were analyzed for either an arrest in mitosis or a change in DNA content by GE IN-Cell Analyzer 2000. As set forth in Table 2 below, a value of greater than or equal to 1 nM and less than or equal to 1.0 μM is marked “A”; a value greater than 1.00 μM and less than or equal to 10.0 μM is marked “B”; a value greater than 10.0 μM and less than or equal to 30.0 μM is marked “C”; and a value greater than 30.0 μM is marked “D.”

T2 HCC [10] = assay: MECP in cancer cell line; details: Mus musculus
Protocol: as §1, §3

SW480 [11] = assay: MECP in cancer cell line; details: Homo sapiens
Protocol: as §1, §3

A549 [12] = assay: MECP in cancer cell line; details: Homo sapiens
Protocol: as §1, §3

HCT116 [13] = assay: MECP in cancer cell line; details: Homo sapiens, HCT-116
Protocol: as §1, §3

Hela [14] = assay: MECP in cancer cell line; details: Homo sapiens
Protocol: as §1, §3

NCI-H23 [15] = assay: MECP in cancer cell line; details: Homo sapiens
Protocol: as §1, with “CO2. […]” for “CO2.”

NCI-N87 [16] = assay: MECP in cancer cell line; details: Homo sapiens
Protocol: as §1, with “CO2. […]” for “CO2.”

RPEMYC^H2B-GFP cells = assay: Phenotypic screening assay (mitotic arrest, polyploidy); details: 1 nM to 30 μM; for IC50: read-out: Proliferative arrest (>50%)
Protocol: as §3

[17] = read-out: Min. Effective conc. for Polyploidy (≥5%)

EC50 (MDA-MB-231 [1]) [µM] | EC50 (T2 HCC [2]) [µM] | EC50 (SW480 [3]) [µM] | EC50 (NCI-H23 [4]) [µM] | EC50 (A549 [6]) [µM] | EC50 (HCT116 [7]) [µM] | EC50 (Hela [8]) [µM] | Compound | EC50 (NCI-N87 [5]) [µM] | minimal effective concentration (MDA-MB-231 [9]) [µM] | minimal effective concentration (T2 HCC [10]) [µM] | minimal effective concentration (SW480 [11]) [µM] | minimal effective concentration (A549 [12]) [µM] | minimal effective concentration (HCT116 [13]) [µM] | minimal effective concentration (Hela [14]) [µM] | minimal effective concentration (NCI-H23 [15]) [µM] | minimal effective concentration (NCI-N87 [16]) [µM] | minimal effective concentration (RPEMYC^H2B-GFP cells; [17]) [µM] | minimal effective concentration (RPEMYC^H2B-GFP cells; read-out: Mitotic Arrest (≥5%)) [µM] | IC50 (RPEMYC^H2B-GFP cells) [µM] | also measured
0.001 to 1 | 0.001 to 1 | 0.001 to 1 | 0.001 to 1 | 0.001 to 1 | 0.001 to 1 | 0.001 to 1 | COc1cc(Oc2ncnc3ccsc23)cc(-n2cccn2)c1 [Compound 38, 4-(3-methoxy-5-(1H-pyrazol-1-yl)phenoxy)thieno[3,2-d]pyrimidine] | 0.001 to 1 | 0.001 to 1 | 0.001 to 1 | 0.001 to 1 | 0.001 to 1 | 0.001 to 1 | 0.001 to 1 | 0.001 to 1 | 0.001 to 1 | 0.001 to 1 | 0.001 to 1 | 0.001 to 1 | –
0.001 to 1 | 0.001 to 1 | 0.001 to 1 | 0.001 to 1 | 0.001 to 1 | 0.001 to 1 | 0.001 to 1 | COc1cc(NC(C)=O)cc(Oc2ccnc3ccc(Br)cc23)c1 [Compound 22, N-(3-((6-bromoquinolin-4-yl)oxy)-5-methoxyphenyl)acetamide] | 0.001 to 1 | 0.001 to 1 | 0.001 to 1 | 0.001 to 1 | 0.001 to 1 | 0.001 to 1 | 0.001 to 1 | 0.001 to 1 | 0.001 to 1 | 0.001 to 1 | 0.001 to 1 | 0.001 to 1 | –
0.001 to 1 | 1 to 10 | 1 to 10 | 0.001 to 1 | 1 to 10 | 1 to 10 | 0.001 to 1 | COC(=O)c1cc2c(Oc3cc(OC)cc(-n4cccn4)c3)ccnc2cc1OC [Compound 32, methyl 7-methoxy-4-(3-methoxy-5-(1H-pyrazol-1-yl)phenoxy)quinoline-6-carboxylate] | 1 to 10 | 1 to 10 | 0.001 to 1 | 0.001 to 1 | 0.001 to 1 | 0.001 to 1 | 0.001 to 1 | 0.001 to 1 | 1 to 10 | 0.001 to 1 | 0.001 to 1 | 0.001 to 1 | –

More lines, now with the values behind:

Compound | EC50 (MDA-MB-231 [1]) [µM] | EC50 (T2 HCC [2]) [µM] | EC50 (SW480 [3]) [µM] | EC50 (NCI-H23 [4]) [µM] | EC50 (A549 [6]) [µM] | EC50 (HCT116 [7]) [µM] | EC50 (Hela [8]) [µM] | EC50 (NCI-N87 [5]) [µM] | minimal effective concentration (MDA-MB-231 [9]) [µM] | minimal effective concentration (T2 HCC [10]) [µM] | minimal effective concentration (SW480 [11]) [µM] | minimal effective concentration (A549 [12]) [µM] | minimal effective concentration (HCT116 [13]) [µM] | minimal effective concentration (Hela [14]) [µM] | minimal effective concentration (NCI-H23 [15]) [µM] | minimal effective concentration (NCI-N87 [16]) [µM] | minimal effective concentration (RPEMYC^H2B-GFP cells; [17]) [µM] | minimal effective concentration (RPEMYC^H2B-GFP cells; read-out: Mitotic Arrest (≥5%)) [µM] | IC50 (RPEMYC^H2B-GFP cells) [µM] | also measured
COc1cc(Oc2ccnc3ccc(OC)cc23)cc(-n2cccn2)c1 [Compound 17, 6-methoxy-4(3-methoxy-5-(1H-pyrazol-1-yl)phenoxy)quinoline] | 0.001 to 1 | 0.001 to 1 | 0.001 to 1 | 0.001 to 1 | 0.001 to 1 | 0.001 to 1 | 0.001 to 1 | 0.001 to 1 | 0.001 to 1 | 0.001 to 1 | 0.001 to 1 | 0.001 to 1 | 0.001 to 1 | 0.001 to 1 | 0.001 to 1 | 0.001 to 1 | 0.001 to 1 | 0.001 to 1 | 0.001 to 1 | Min. Effective conc. for Polyploidy (≥5%) (RPEMYC^H2B-GFP cells): B (a value greater than 1.00 μM and less than or equal to 10.0 μM); Mitotic Arrest (≥5%) (RPEMYC^H2B-GFP cells): B (a value greater than 1.00 μM and less than or equal to 10.0 μM); Proliferative arrest (>50%) (RPEMYC^H2B-GFP cells): B (a value greater than 1.00 μM and less than or equal to 10.0 μM); Along with Cell Death (RPEMYC^H2B-GFP cells; listed as 16): B (a value greater than 1.00 μM and less than or equal to 10.0 μM)
COc1cc(Oc2ccnc3ccc(F)cc23)cc(-n2cccn2)c1 [Compound 19, 6-fluoro-4-(3-methoxy-5-(1H-pyrazol-1-yl)phenoxy)quinoline] | 0.001 to 1 | 0.001 to 1 | 1 to 10 | 0.001 to 1 | 0.001 to 1 | 0.001 to 1 | 0.001 to 1 | 0.001 to 1 | 0.001 to 1 | 0.001 to 1 | 0.001 to 1 | 0.001 to 1 | 0.001 to 1 | 0.001 to 1 | 0.001 to 1 | 0.001 to 1 | 0.001 to 1 | 0.001 to 1 | 0.001 to 1 | –
COc1cc(NC(C)=O)cc(Oc2ccnc3ccc(F)cc23)c1 [Compound 20, N-(3-((6-fluoroquinolin-4-yl)oxy)-5-methoxyphenyl)acetamide] | 0.001 to 1 | 0.001 to 1 | 0.001 to 1 | 0.001 to 1 | 0.001 to 1 | 0.001 to 1 | 0.001 to 1 | 0.001 to 1 | 0.001 to 1 | 0.001 to 1 | 0.001 to 1 | 0.001 to 1 | 0.001 to 1 | 0.001 to 1 | 0.001 to 1 | 0.001 to 1 | 0.001 to 1 | 0.001 to 1 | 0.001 to 1 | –
